Test results as given in patent US9969695B2, “N-substituted imidazole carboxylic ester chiral compound containing an ether side chain, its preparation and application” (WEST CHINA HOSPITAL, SICHUAN UNIVERSITY, priority 2013, dated 2018).
Where “and” joins values, the source holds several entries; their conditions need not be identical. Equal values may be shown once. Where a name gives a salt, the structure may show the parent alone. Read-outs that look alike come from different tables or passages of the source.

What was measured:
Type in all cases: in vivo
[1] = tested on: Male SD rats; test: ED50 by the sequential method, extinction of rat body-righting reflex; conditions: etomidate as Etomidate-Lipuro, extinction of body-righting reflex ≥30 s; for ED50: Rattus norvegicus, read-out: 50% effective dose (ED50)
Description: (§1) Male SD rats (250˜300 g) were used as an experimental animal, and 50% effective dose (ED50) was determined by the sequential method. Three compounds were dissolved in a solvent of DMSO, and etomidate was used as the commercially-available formulation (B BRAUN, Etomidate-Lipuro®, 20 mg/10 mL). Based on the initial dose of 1 mg/kg, other dosages were adjusted as the ratio of 0.8, and the ED50 values of the three compounds and etomidate were determined. Extinction time ≥30 s for the rat body-righting reflex was the positive marker while no disappearance of the righting reflex was considered invalid. Based on the experimental results, four cross-points were formed, and the ED50 values were calculated. […] Then, the respective 2ED50 values of the three compounds and etomidate were taken in an equivalent dose, which were administered via the rat tail vein. The preliminary effects were evaluated in the four rat groups, which were given the three compounds of Formulas (I), (IV), (V) and etomidate, respectively, with 10 rats in each group. […] The last time of the Formula (I) compound and etomidate was 5-6 min, but the last time of the Formulas (IV) and (V) compounds was 10-20 min. […] DMSO had no pharmacological effects, and no adverse effects were observed. The onset time, the last time, and the adverse effects (types, incidence rates) induced by the three compounds and etomidate are shown in the following table:
(§2) Male SD rats (250˜300 g) were used as an experimental animal, and 50% effective dose (ED50) was determined by the sequential method. Hydrochlorides of the three compounds were dissolved in the solvent of normal saline, and etomidate was used as the commercially-available formulation (B BRAUN, Etomidate-Lipuro®, 20 mg/10 mL). The initial dose was 1 mg/kg, and the ratio of dosage variation was 0.8, which was applied in the determination of ED50 values of Formula (I) hydrochloride, Formula (I) hydrobromide, Formula (I) trifluoroacetate, and etomidate. Extinction time (≥30 s) of the rat body-righting reflex was the positive marker while no disappearance of the reflex was considered invalid. Based on the experimental results, four cross-points were formed, and then ED50 values were calculated. […] Then, the respective 2ED50 values of the three compounds and etomidate were taken in an equivalent dose, which were administered via the rat tail vein. The preliminary effects were evaluated in the four rat groups, which were given the three compounds of Formulas (I) hydrochloride, Formula (I) hydrobromide, Formula (I) trifluoroacetate, and etomidate, respectively, with 10 rats in each group. […] Palinesthesia time was in arrange of 5-10 min. During the test period, no significant difference was found in the types and the incidence rates of adverse effects in each group. DMSO had no pharmacological effects, and no adverse effect was found. The onset time, the last time, and the types and the incidence rates of adverse effects induced by the three salt compounds and etomidate are shown in the following table: […]

[2] = tested on: self-synthesis of adrenocortical hormone; test: Increase degree of cortical hormone (cortisol, corticosterone) in blood serum after ACTH stimulation, ELISA; conditions: Beagle dogs; for Increase degree of corticosterone / Increase degree of cortisol: 2ED50, dexamethasone baseline, 1 h after ACTH
Description: Male Beagle dogs (10±2 kg) were selected as an experimental animal. After administration, the contents of corticosterone and cortisol in the blood serum of the Beagle dogs were determined by the ELISA kit and the enzyme-labelled instrument. The 20 Beagle dogs were divided into five groups, with four dogs in each group. After respective administration of dexamethasone (0.01 mg/kg), the level of adrenal cortex in the dog body was lowered to the baseline, and those levels of corticosterone and cortisol at this time were used as the base value (baseline). […] After 10 min, ACTH (adrenocortical hormone) was given to stimulate and cause an increased level of cortex in the dog body. One hour after administration of ACTH, both corticosterone and cortisol levels in the blood serum of the Beagle dogs were determined, and the ratio of the peak value to the base value of the cortex levels was calculated. This ratio indicated the increase degree of the cortical hormone. A greater degree indicated a less inhibitory effect of the medicine on the cortical hormone. After administration, compounds of Formulas (I), (IV) and (V), DMSO, and the increase degree of the cortical hormone followed by stimulation of ACTH are shown in the following table:
Male Beagle dogs (10±2 kg) were selected as an experimental animal. After administration, the contents of corticosterone and cortisol in the blood serum of the Beagle dogs were determined by the ELISA kit and the enzyme-labelled instrument. The 20 Beagle dogs were divided into five groups, with four dogs in each group. After respective administration of dexamethasone (0.01 mg/kg), the level of adrenal cortex in the dog body was lowered to the baseline, and the levels of corticosterone and cortisol at this time were used as the baseline. Then, the equivalent doses (2ED50) of the compounds of Formula (I) hydrochloride (3.62 mg/kg), hydrobromide (3.86 mg/kg), trifluoroacetate (4.66 mg/kg), the positive control medicine Etomidate-Lipuro® (0.9 mg/kg), and the equal-volume of solvent DMSO were respectively administrated into the dogs of the five groups. After 10 min, ACTH was given to stimulate and cause the cortex levels increase in the dog body. One hour after administration of ACTH, both the cortical hormone levels were determined, and the ratio of the peak value to the baseline of cortex levels was calculated. This ratio indicated the increase degree of the cortical hormone. A greater degree of increase indicated a less inhibitory effect of the medicine on the cortical hormone. After administrations, the three salts of the Formula (I) compound, DMSO, the increase degree of the cortical hormone followed by stimulation of ACTH are shown in the following table: […]

[3] = tested on: Male SD rats; test: Onset time, last time, palinesthesia time and adverse effects at 2ED50 via the rat tail vein; conditions: for Incidence of adverse effect: Anal sphincter dilatation / Incidence of adverse effect: Bucking / Incidence of adverse effect: Hindlimb stiffness / Incidence of adverse effect: Muscle tremor / Incidence of adverse effect: Tic of limbs / Incidence of adverse effect: Vomiting / Onset time: 10 rats per group; for Last time: disappearance to recovery of body-righting reflex; for Palinesthesia tune / Palinesthesia time: recovery to full recovery of body-righting reflex
Description: as §1, §2

[4] = Example 10, ratio of peak value to base value
[5] = Example 11, ratio of peak value to baseline
[6] = Example 9, 2ED50 via tail vein, listed as Formula (I) hydrobromide
[7] = Example 9, 2ED50 via tail vein, listed as Formula (I) hydrochloride
[8] = Example 9, 2ED50 via tail vein, listed as Formula (I) trifluoroacetate

| SMILES | ED50 ([1]; Example 8, compounds in DMSO) | Increase degree of corticosterone [2, 4] | Increase degree of cortisol [2, 4] | sedative-hypnotic and general anesthetic effects (conclusion in words) ([3]; Example 8) | types and incidence rates of the adverse effects (in words) ([3]; Example 8, 2ED50 via tail vein) | Incidence of adverse effect: Anal sphincter dilatation ([3]; Example 8, 2ED50 via tail vein) | Incidence of adverse effect: Bucking ([3]; Example 8, 2ED50 via tail vein) | Incidence of adverse effect: Hindlimb stiffness ([3]; Example 8, 2ED50 via tail vein) | Incidence of adverse effect: Muscle tremor ([3]; Example 8, 2ED50 via tail vein) | Onset time ([3]; Example 8, 2ED50 via tail vein) | Last time ([3]; Example 8, 2ED50 via tail vein) | Palinesthesia tune ([3]; Example 8, 2ED50 via tail vein) | cortical hormone increase after stimulation by ACTH (conclusion in words) ([2]; Example 11) | Increase degree of corticosterone [2, 5] | Increase degree of cortisol [2, 5] | sedative-hypnotic and general anesthetic effects (conclusion in words) ([3]; Example 9) | Incidence of adverse effect: Muscle tremor ([3]; Example 9, 2ED50 via tail vein) | Onset time ([3]; Example 9, 2ED50 via tail vein) | Last time ([3]; Example 9, 2ED50 via tail vein) | Palinesthesia time ([3]; Example 9, 2ED50 via tail vein) | further results |
| --- | --- | --- | --- | --- | --- | --- | --- | --- | --- | --- | --- | --- | --- | --- | --- | --- | --- | --- | --- | --- | --- |
| COCCOC(=O)c1cncn1C(C)c1ccccc1 (racemic) [Compound V] | 10.4 mg/kg | 3.18 ± 1.15 | 5.17 ± 2.28 | lower potency, elongated onset time, extended last time, and increased types and incidence rates of adverse effects | obviously increased | (2/10), 20%; | Bucking (4/10), 40% | 20%; | 60%; | a little slower action and 1.0 ± 0.6 min | 10.8 ± 3.5 min | 15.1 ± 2.6 min | – | – | – | – | – | – | – | – | Incidence of adverse effect: Tic of limbs ([3]; Example 8, 2ED50 via tail vein): Tic of limbs (5/10), 50%;; Incidence of adverse effect: Vomiting ([3]; Example 8, 2ED50 via tail vein): Vomiting (5/10), 50%; |
| COCCOC(=O)c1cncn1[C@@H](C)c1ccccc1 [Compound IV] | 7.46 mg/kg | 1.19 ± 0.87 | 3.32 ± 2.36 | lower potency, elongated onset time, extended last time, and increased types and incidence rates of adverse effects | obviously increased | (5/10), 50%; | Bucking (6/10), 60% | 50%; | 100%; | 2.2 ± 0.8 min | 20.3 ± 4.6 min | 21.4 ± 2.3 min | – | – | – | – | – | – | – | – | Incidence of adverse effect: Tic of limbs ([3]; Example 8, 2ED50 via tail vein): Tic of limbs (7/10), 70%;; Incidence of adverse effect: Vomiting ([3]; Example 8, 2ED50 via tail vein): Vomiting (7/10), 70%;; Onset time ([3]; Example 8, 2ED50 via tail vein, listed as Formula (IV)): a little slower action |
| COCCOC(=O)c1cncn1[C@H](C)c1ccccc1 [Compound I] | 2.1 mg/kg | 11.46 ± 4.30 | 19.88 ± 19.8 | good sedative-hypnotic and general anesthetic effects | – | – | – | – | 70% | Immediate | 5.8 ± 0.9 min | 4.8 ± 1.3 min | – | – | – | – | – | – | – | – | inhibition on cortical hormone (conclusion in words) ([2]; Example 10, after stimulation by ACTH): obviously reduced when compared with that of the control medicine etomidate; Onset time ([3]; Example 8, 2ED50 via tail vein, listed as Formula (I) compound): immediate action |
| COCCOC(=O)c1cncn1[C@H](C)c1ccccc1 [Hydrobromide of Formula (I) compound] | – | – | – | – | – | – | – | – | – | – | – | – | lower than that in the blank group of the dogs, but obviously higher than that in the positive medicine etomidate group of the dogs | 12.36 ± 6.65 | 29.14 ± 11.86 | good sedative-hypnotic and general anesthetic effects | 50% | Immediate | 4.6 ± 1.1 min | 5.8 ± 1.2 min | 50% effective dose (ED50) ([1]; Example 9, salts in normal saline, listed as Formula (I) hydrobromide): 3.09 mg/kg; Onset time [3, 6]: immediate action; Last time [3, 6]: 5 to 6 min |
| COCCOC(=O)c1cncn1[C@H](C)c1ccccc1 [Hydrochloride of Formula (I) compound] | – | – | – | – | – | – | – | – | – | – | – | – | lower than that in the blank group of the dogs, but obviously higher than that in the positive medicine etomidate group of the dogs | 18.14 ± 5.66 | 25.36 ± 14.77 | good sedative-hypnotic and general anesthetic effects | 60% | Immediate | 5.8 ± 0.7 min | 5.6 ± 1.8 min | ED50 ([1]; Example 9, salts in normal saline): 2.58 mg/kg; Onset time [3, 7]: immediate action; Last time [3, 7]: 5 to 7 min |
| COCCOC(=O)c1cncn1[C@H](C)c1ccccc1 [Trifluoroacetate of Formula (I) compound] | – | – | – | – | – | – | – | – | – | – | – | – | lower than that in the blank group of the dogs, but obviously higher than that in the positive medicine etomidate group of the dogs | 13.64 ± 4.22 | 26.14 ± 13.89 | good sedative-hypnotic and general anesthetic effects | (5/10), 50% | Immediate | 3.6 ± 1.3 min | 8.2 ± 3.3 min | 50% effective dose (ED50) ([1]; Example 9, salts in normal saline, listed as Formula (I) trifluoroacetate): 3.61 mg/kg; Onset time [3, 8]: immediate action; Last time [3, 8]: 4 to 7 min |
